# Test system: Aβ42
# Test: In vitro cell screening assay in H4 cells expressing human APP751: Aβ42 by sandwich ELISA
# Assay type: cell-based
# Conditions: compounds 0.003-10 μM, incubated overnight (16-18 h), sandwich ELISA of supernatant
# Procedure, shortened: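 Secreted Aβ42 measured by sandwich ELISA, C-terminal-specific capture and 4G8-HRP detection, TMB read at 450 nm, from supernatants of APP751-expressing H4 cells exposed overnight (16-18 h) to 0.003-10 μM compound in Pro293 medium, 0.33% DMSO. Data scaled between DMSO and DAPT controls; EC50 from variable-slope nonlinear regression.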
row,Structure (SMILES),EC50 [nM]
1,"COc1nc(C2=NOCC(c3cc4ccccc4o3)N2)ccc1-n1cnc(C)n1 (single isomer, unassigned; (-)) [Example 31A, (−)-5-(Benzofuran-2-yl)-3-(6-methoxy-5-(3-methyl-1H-1,2,4-triazol-1-yl)pyridin-2-yl)-5,6-dihydro-4H-1,2,4-oxadiazine]",> 3000
2,"COc1nc(C2=NOCC(c3ccc(Cl)c(Cl)c3)N2)ccc1-n1cnc(C)c1 (single isomer, unassigned; (-)) [Example 49A, (−)-5-(3,4-dichlorophenyl)-3-(6-methoxy-5-(4-methyl-1H-imidazol-1-yl)pyridin-2-yl)-5,6-dihydro-4H-1,2,4-oxadiazine]",> 3000
3,"COc1ccc(C2CON=C(c3ccc(-n4cnc(C)c4)c(OC)n3)N2)cc1 (single isomer, unassigned; (-)) [Example 54A, (−)-3-(6-methoxy-5-(4-methyl-1H-imidazol-1-yl)pyridin-2-yl)-5-(4-methoxyphenyl)-5,6-dihydro-4H-1,2,4-oxadiazine]",> 3000
4,"COc1nc(C2=NOCC(c3cc4cc(Cl)ccc4o3)N2)ccc1-n1cnc(C)c1 (single isomer, unassigned; (-)) [Example 57A, (−)-5-(5-chlorobenzofuran-2-yl)-3-(6-methoxy-5-(4-methyl-1H-imidazol-1-yl)pyridin-2-yl)-5,6-dihydro-4H-1,2,4-oxadiazine]",2280
5,"COc1nc(C2=NOCC(c3ccc(C(F)(F)F)cc3)N2)ccc1-n1cnc(C)c1 (single isomer, unassigned; (-)) [Example 59A, (−)-3-(6-methoxy-5-(4-methyl-1H-imidazol-1-yl)pyridin-2-yl)-5-(4-(trifluoromethyl)phenyl)-5,6-dihydro-4H-1,2,4-oxadiazine]",> 3000
6,"COc1nc(C2=NOCC(c3ccc(OC(F)(F)F)cc3)N2)ccc1-n1cnc(C)c1 (single isomer, unassigned; (-)) [Example 70A, (−)-3-(6-methoxy-5-(4-methyl-1H-imidazol-1-yl)pyridin-2-yl)-5-(4-(trifluoromethoxy)phenyl)-5,6-dihydro-4H-1,2,4-oxadiazine]",> 3000
7,"COc1nc(C2=NOCC(c3ccc(F)c(F)c3)N2)ccc1-n1cnc(C)c1 (single isomer, unassigned; (-)) [Example 75A, (−)-5-(3,4-difluorophenyl)-3-(6-methoxy-5-(4-methyl-1H-imidazol-1-yl)pyridin-2-yl)-5,6-dihydro-4H-1,2,4-oxadiazine]",> 3000
8,"COc1nc(C2=NOCC(c3cc(F)cc(F)c3)N2)ccc1-n1cnc(C)c1 (single isomer, unassigned; (-)) [Example 81A, (−)-5-(3,5-difluorophenyl)-3-(6-methoxy-5-(4-methyl-1H-imidazol-1-yl)pyridin-2-yl)-5,6-dihydro-4H-1,2,4-oxadiazine]",> 3000
9,"COc1nc(C2=NOCC(c3ccc(Cl)c(C)c3)N2)ccc1-n1cnc(C)c1 (single isomer, unassigned; (-)) [Example 86A, (−)-5-(4-chloro-3-methylphenyl)-3-(6-methoxy-5-(4-methyl-1H-imidazol-1-yl)pyridin-2-yl)-5,6-dihydro-4H-1,2,4-oxadiazine]",1550
10,"COc1nc(C2=NOCC(c3cc4cccc(F)c4o3)N2)ccc1-n1cnc(C)c1 (single isomer, unassigned; (-)) [Example 89A, (−)-5-(7-fluorobenzofuran-2-yl)-3-(6-methoxy-5-(4-methyl-1H-imidazol-1-yl)pyridin-2-yl)-5,6-dihydro-4H-1,2,4-oxadiazine]",2340
11,"COc1nc(C2=NOCC(c3cc(F)c(F)c(F)c3)N2)ccc1-n1cnc(C)c1 (single isomer, unassigned; (-)) [Example 91A, (−)-3-(6-methoxy-5-(4-methyl-1H-imidazol-1-yl)pyridin-2-yl)-5-(3,4,5-trifluorophenyl)-5,6-dihydro-4H-1,2,4-oxadiazine]",> 3000
12,"COc1nc(C2=NOCC(c3ccc(OC(F)F)cc3)N2)ccc1-n1cnc(C)c1 (single isomer, unassigned; (-)) [Example 93A, (−)-5-(4-(difluoromethoxy)phenyl)-3-(6-methoxy-5-(4-methyl-1H-imidazol-1-yl)pyridin-2-yl)-5,6-dihydro-4H-1,2,4-oxadiazine]",> 3000

# Compounds with a lower EC50, results first:
row,EC50 [nM],Structure (SMILES)
1,508,"COc1nc(C2=NOCC(c3oc4ccccc4c3C)N2)ccc1-n1cnc(C)c1 (single isomer, unassigned; (-)) [Example 16A, (−)-3-(6-methoxy-5-(4-methyl-1H-imidazol-1-yl)pyridin-2-yl)-5-(3-methylbenzofuran-2-yl)-5,6-dihydro-4H-1,2,4-oxadiazine]"
2,667,"COc1nc(C2=NOCC(c3cc4ccc(F)cc4o3)N2)ccc1-n1cnc(C)c1 (single isomer, unassigned; (-)) [Example 52A, (−)-5-(6-fluorobenzofuran-2-yl)-3-(6-methoxy-5-(4-methyl-1H-imidazol-1-yl)pyridin-2-yl)-5,6-dihydro-4H-1,2,4-oxadiazine]"
3,775,"COc1nc(C2=NOCC(C3CCCCC3)N2)ccc1-n1cnc(C)c1 (single isomer, unassigned; (-)) [Example 61A, (−)-5-cyclohexyl-3-(6-methoxy-5-(4-methyl-1H-imidazol-1-yl)pyridin-2-yl)-5,6-dihydro-4H-1,2,4-oxadiazine]"
4,759,"COc1nc(C2=NOCC(c3cc4cccc(Cl)c4o3)N2)ccc1-n1cnc(C)c1 (single isomer, unassigned; (-)) [Example 64A, (−)-5-(7-chlorobenzofuran-2-yl)-3-(6-methoxy-5-(4-methyl-1H-imidazol-1-yl)pyridin-2-yl)-5,6-dihydro-4H-1,2,4-oxadiazine]"
5,651,"COc1nc(C2=NOCC(c3sc4ccccc4c3C)N2)ccc1-n1cnc(C)c1 (single isomer, unassigned; (-)) [Example 66A, (−)-3-(6-methoxy-5-(4-methyl-1H-imidazol-1-yl)pyridin-2-yl)-5-(3-methylbenzo [b]thiophen-2-yl)-5,6-dihydro-4H-1,2,4-oxadiazine]"
6,1090,"COc1nc(C2=NOCC(c3csc4ccccc34)N2)ccc1-n1cnc(C)c1 (single isomer, unassigned; (-)) [Example 68A, (−)-5-(benzo [b]thiophen-3-yl)-3-(6-methoxy-5-(4-methyl-1H-imidazol-1-yl)pyridin-2-yl)-5,6-dihydro-4H-1,2,4-oxadiazine]"
7,54.9,"CCn1cc(C2CON=C(c3ccc(-n4cnc(C)c4)c(OC)n3)N2)c2cc(Cl)c(F)cc21 (single isomer, unassigned; (-)) [Example 73A, (−)-5-(5-chloro-1-ethyl-6-fluoro-1H-indol-3-yl)-3-(6-methoxy-5-(4-methyl-1H-imidazol-1-yl)pyridin-2-yl)-5,6-dihydro-4H-1,2,4-oxadiazine]"
8,1280,"COc1nc(C2=NOCC(c3cc4ccc(Cl)cc4o3)N2)ccc1-n1cnc(C)c1 (single isomer, unassigned; (-)) [Example 78A, (−)-5-(6-chlorobenzofuran-2-yl)-3-(6-methoxy-5-(4-methyl-1H-imidazol-1-yl)pyridin-2-yl)-5,6-dihydro-4H-1,2,4-oxadiazine]"
9,944,"COc1nc(C2=NOCC(c3cc4cc(F)ccc4o3)N2)ccc1-n1cnc(C)c1 (single isomer, unassigned; (-)) [Example 84A, (−)-5-(5-fluorobenzofuran-2-yl)-3-(6-methoxy-5-(4-methyl-1H-imidazol-1-yl)pyridin-2-yl)-5,6-dihydro-4H-1,2,4-oxadiazine]"

# From patent US9802927B2, “Oxadiazine compounds and methods of use thereof” (Denali Therapeutics, Inc., priority 2015, dated 2017)
